According to ChEMBL document CHEMBL1201862, “PubChem BioAssay data set” (2004):
Where “and” joins values, the source holds several entries; their conditions need not be identical. Equal values may be shown once. Calls of active or inactive are those of the source.

What was measured:
Estrogen receptor = molecular target: T1, Estrogen receptor (Homo sapiens, UniProt P03372); test: potentiators of ERα–SRC-1 coactivator binding, dose response, biochemical, TR-FRET, ERα LBD (AID 737)
T1 sequence (P03372 whole entry): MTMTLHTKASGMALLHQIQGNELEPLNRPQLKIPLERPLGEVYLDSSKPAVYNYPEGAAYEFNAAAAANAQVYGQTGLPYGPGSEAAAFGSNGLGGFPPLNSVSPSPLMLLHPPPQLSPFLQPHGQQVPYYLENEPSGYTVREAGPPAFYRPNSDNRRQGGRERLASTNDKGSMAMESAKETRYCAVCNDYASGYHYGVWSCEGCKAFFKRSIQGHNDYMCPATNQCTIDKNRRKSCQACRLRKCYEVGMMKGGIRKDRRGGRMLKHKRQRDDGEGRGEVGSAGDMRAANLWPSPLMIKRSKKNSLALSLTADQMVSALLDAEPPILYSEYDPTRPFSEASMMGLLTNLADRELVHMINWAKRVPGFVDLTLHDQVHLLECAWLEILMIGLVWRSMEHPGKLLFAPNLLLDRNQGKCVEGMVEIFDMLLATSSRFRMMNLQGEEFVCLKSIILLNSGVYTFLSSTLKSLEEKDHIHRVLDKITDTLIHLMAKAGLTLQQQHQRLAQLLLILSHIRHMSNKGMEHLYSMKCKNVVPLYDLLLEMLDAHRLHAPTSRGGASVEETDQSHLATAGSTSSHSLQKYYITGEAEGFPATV

[1] = NIH-3T3 fibroblast cytotoxicity, dose response, cytotoxicity control, cell-based, fluorescence, Alamar Blue, secondary assay (AID 2327); type: functional;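 note: NIH-3T3 mouse fibroblasts cultured with fluconazole at 8 µg/mL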
[2] = molecular target: T2, Mannose-6-phosphate isomerase (Homo sapiens, UniProt P34949); test: inhibitors of human PMI, primary screen, biochemical, fluorescence intensity, coupled assay (AID 1209)
T2 sequence (P34949 whole entry): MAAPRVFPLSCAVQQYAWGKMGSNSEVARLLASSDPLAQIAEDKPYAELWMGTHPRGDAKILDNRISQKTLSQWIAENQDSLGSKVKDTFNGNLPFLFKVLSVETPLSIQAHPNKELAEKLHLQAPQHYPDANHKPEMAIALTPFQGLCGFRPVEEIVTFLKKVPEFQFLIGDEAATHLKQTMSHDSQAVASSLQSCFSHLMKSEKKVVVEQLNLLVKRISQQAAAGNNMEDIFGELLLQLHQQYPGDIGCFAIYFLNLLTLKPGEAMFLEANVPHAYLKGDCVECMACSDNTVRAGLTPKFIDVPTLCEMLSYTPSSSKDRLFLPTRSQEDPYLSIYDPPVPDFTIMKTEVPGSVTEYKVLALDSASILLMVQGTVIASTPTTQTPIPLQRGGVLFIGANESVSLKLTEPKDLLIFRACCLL

Protein Tat = molecular target: T3, Protein Tat (Human immunodeficiency virus type 1 group M subtype B (isolate HXB2)(HIV-1), UniProt P04608); type: functional;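 note: tat binding to TAR RNA read out by fluorescence polarization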
T3 sequence (P04608 whole entry): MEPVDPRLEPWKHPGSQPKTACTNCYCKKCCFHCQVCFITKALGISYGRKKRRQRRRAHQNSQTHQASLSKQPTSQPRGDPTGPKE

[3] = THP-1 cell cytotoxicity, dose response, cytotoxicity control for Vif-APOBEC3G degradation inhibitor project, THP-1 cells (AID 1117359); type: functional; settings: Human immunodeficiency virus 1, THP-1
[4] = molecular target: Potassium voltage-gated channel subfamily KQT member 2 (Rattus norvegicus, UniProt O88943, W236L); test: KCNQ2 channel potentiators, dose response, mechanism study for KCNQ2 potentiator project, cell-based, automated electrophysiology (AID 2603); type: functional
[5] = molecular target: Sphingosine 1-phosphate receptor 2 (Homo sapiens, UniProt O95136); test: Dose Response Cell Based Assay for Agonists of the S1P2 Receptor of Purchased Analogues. [Related pubchem assays: 729, 843, 854, 736 ]; type: functional
Bcl-2-like protein 10 [6] = molecular target: T4, Bcl-2-like protein 10 (Homo sapiens, UniProt Q9HD36); test: Biochemical TR3 FP assay of Bcl-B inhibitor potency, EC50 (AID 1243); type: functional
T4 sequence (Q9HD36 whole entry): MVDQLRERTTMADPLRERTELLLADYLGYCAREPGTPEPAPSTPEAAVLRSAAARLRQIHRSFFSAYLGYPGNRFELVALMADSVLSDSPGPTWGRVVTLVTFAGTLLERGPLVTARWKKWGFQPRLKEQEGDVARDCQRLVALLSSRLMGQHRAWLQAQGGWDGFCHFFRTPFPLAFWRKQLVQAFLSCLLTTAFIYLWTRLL

NS3 = NS3 (Hepatitis C virus, UniProt A3EZJ3); test: HCV NS3 helicase inhibitor potency, dose response, biochemical, fluorescence polarization, ChemBridge library (AID 743264)
[7] = molecular target: T5, Neuropeptide Y receptor type 2 (Homo sapiens, UniProt P49146); test: NPY-Y2 antagonist potency, selectivity check, dose response, counter-screen for NPY-Y1 antagonist project, cell-based (AID 1278); type: functional
[8] = molecular target: T6, Neuropeptide Y receptor type 1 (Homo sapiens, UniProt P25929); test: NPY-Y1 receptor antagonist potency, dose response, cell-based (AID 1277); type: functional
[9] = molecular target: Potassium voltage-gated channel subfamily KQT member 2 (Rattus norvegicus, UniProt O88943); test: KCNQ2 potassium channel inhibitors, dose response, cell-based, automated electrophysiology, set II, rat KCNQ2 (AID 588637); type: functional
[10] = HEp-2 cell cytotoxicity, dose response, cytotoxicity control for RSV inhibitor project, HTS (AID 2410); type: functional; settings: human respiratory syncytial virus
[11] = Luminescence Cell-Based Dose Confirmation HTS to Identify Activators of 5'UTR Stem-Loop Driven Alpha-Synuclein mRNA Translation in H4 Neuroglioblastoma Cells. [Related pubchem assays: 1829 (Project Summary), 1814 (Primary HTS)]; type: functional
[12] = Luminescence Cell-Based Dose Response HTS to Identify Activators of Luciferase Translation or Activity in H4 […] Cells. [Related pubchem assays: 1829 (Project Summary), 1814 (Primary HTS)]; type: functional
H4 = test: Luminescence Cell-Based Dose Response HTS to Identify Activators of 5'UTR Stem-Loop Driven Prion Protein mRNA Translation in H4 Neuroglioblastoma Cells. [Related pubchem assays: 1829 (Project Summary), 1814 (Primary HTS)]; type: functional; settings: Homo sapiens
Vero = test: cells; type: functional, cell-based; settings: Chlorocebus sabaeus
[13] = molecular target: T6, Neuropeptide Y receptor type 1; type: functional
[14] = molecular target: T5, Neuropeptide Y receptor type 2; type: functional, cell-based
[15] = molecular target: T7, Heat shock 70 kDa protein 1A (Homo sapiens, UniProt P0DMV8); test: Hsp70 inhibitors, biochemical, TR-FRET (AID 786)
Bcl-2-like protein 10 [16] = molecular target: T4, Bcl-2-like protein 10; test: displacers of TR3 peptide from Bcl-B, primary screen, selectivity assay for Bfl-1 inhibitor project, biochemical, fluorescence polarization, FITC-TR3 peptide (AID 748);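 note: fluorescence polarization from a fluorescein-labelled TR3 peptide binding purified Bcl-B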
[17] = molecular target: T7, Heat shock 70 kDa protein 1A; test: Hsp70 inhibitors, probe displacement, primary screen, biochemical, fluorescence polarization (AID 583)
[18] = molecular target: T8, Tyrosine-protein phosphatase non-receptor type 7 (Homo sapiens, UniProt P35236); test: redox-dependent HePTP inhibition, mechanism study, biochemical, fluorescence (AID 2068); type: functional
T8 sequence (P35236 whole entry): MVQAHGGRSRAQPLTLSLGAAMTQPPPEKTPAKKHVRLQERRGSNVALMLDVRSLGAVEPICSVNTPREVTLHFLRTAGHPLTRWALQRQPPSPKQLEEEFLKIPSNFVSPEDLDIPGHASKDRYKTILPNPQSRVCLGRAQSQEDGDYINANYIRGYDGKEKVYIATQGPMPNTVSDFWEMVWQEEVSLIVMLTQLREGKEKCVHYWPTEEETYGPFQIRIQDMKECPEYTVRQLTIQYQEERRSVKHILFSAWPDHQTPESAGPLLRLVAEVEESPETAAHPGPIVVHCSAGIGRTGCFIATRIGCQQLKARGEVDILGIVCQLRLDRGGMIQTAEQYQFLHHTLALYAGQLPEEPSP

Leucine aminopeptidase = molecular target: T9, Leucine aminopeptidase (Plasmodium falciparum 3D7, UniProt Q8IL11); test: P. falciparum M17LAP inhibitors, primary screen, biochemical, fluorogenic H-Leu-NHMec substrate, 1536-well (AID 1619); type: functional
T9 sequence (Q8IL11 whole entry): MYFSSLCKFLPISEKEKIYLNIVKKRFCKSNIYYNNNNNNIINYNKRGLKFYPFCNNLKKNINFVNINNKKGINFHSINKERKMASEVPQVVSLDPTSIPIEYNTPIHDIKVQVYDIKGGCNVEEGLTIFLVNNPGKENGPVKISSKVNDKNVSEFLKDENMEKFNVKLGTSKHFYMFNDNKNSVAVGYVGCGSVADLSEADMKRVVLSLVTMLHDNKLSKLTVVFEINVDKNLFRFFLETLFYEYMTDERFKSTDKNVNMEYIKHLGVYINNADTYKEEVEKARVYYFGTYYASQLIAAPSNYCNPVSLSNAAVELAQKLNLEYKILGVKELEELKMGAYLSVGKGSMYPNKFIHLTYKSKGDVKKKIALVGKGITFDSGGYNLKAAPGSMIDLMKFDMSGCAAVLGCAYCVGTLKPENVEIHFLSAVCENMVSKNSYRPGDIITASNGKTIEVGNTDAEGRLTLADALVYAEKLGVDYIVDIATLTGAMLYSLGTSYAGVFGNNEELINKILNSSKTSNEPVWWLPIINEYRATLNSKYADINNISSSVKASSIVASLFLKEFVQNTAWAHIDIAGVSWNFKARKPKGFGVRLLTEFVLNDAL

Aspartyl aminopeptidase = Aspartyl aminopeptidase (Plasmodium falciparum 3D7, UniProt Q8I2J3); test: Counterscreen for inhibitors of M1 and M17 aminopeptidases: QFRET-based biochemical high throughput dose response assay for inhibitors of the Plasmodium falciparum M18 Aspartyl Aminopeptidase (PFM18AAP). [Related PubChem assays: 1619 (Screening assay (M17LAP inhibitors).), 1445 (Screening assay (M1AAP inhibitors).)]
Procathepsin L = Procathepsin L (Homo sapiens, UniProt P07711); test: cathepsin L inhibitors, dose response, counter-screen for M1/M17 aminopeptidase inhibitor project, biochemical, QFRET, 1536-well (AID 2214)
[19] = molecular target: T10, Short transient receptor potential channel 4 (Mus musculus, UniProt Q9QUQ5); test: mouse TRPC4 channel inhibitors, dose response, cell-based, HEK293 TRPC4/mu-opioid, Fluo-4 calcium (AID 434942); type: functional;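 note: potency of inhibitors blocking the TRPC4 calcium response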
T10 sequence (Q9QUQ5 whole entry): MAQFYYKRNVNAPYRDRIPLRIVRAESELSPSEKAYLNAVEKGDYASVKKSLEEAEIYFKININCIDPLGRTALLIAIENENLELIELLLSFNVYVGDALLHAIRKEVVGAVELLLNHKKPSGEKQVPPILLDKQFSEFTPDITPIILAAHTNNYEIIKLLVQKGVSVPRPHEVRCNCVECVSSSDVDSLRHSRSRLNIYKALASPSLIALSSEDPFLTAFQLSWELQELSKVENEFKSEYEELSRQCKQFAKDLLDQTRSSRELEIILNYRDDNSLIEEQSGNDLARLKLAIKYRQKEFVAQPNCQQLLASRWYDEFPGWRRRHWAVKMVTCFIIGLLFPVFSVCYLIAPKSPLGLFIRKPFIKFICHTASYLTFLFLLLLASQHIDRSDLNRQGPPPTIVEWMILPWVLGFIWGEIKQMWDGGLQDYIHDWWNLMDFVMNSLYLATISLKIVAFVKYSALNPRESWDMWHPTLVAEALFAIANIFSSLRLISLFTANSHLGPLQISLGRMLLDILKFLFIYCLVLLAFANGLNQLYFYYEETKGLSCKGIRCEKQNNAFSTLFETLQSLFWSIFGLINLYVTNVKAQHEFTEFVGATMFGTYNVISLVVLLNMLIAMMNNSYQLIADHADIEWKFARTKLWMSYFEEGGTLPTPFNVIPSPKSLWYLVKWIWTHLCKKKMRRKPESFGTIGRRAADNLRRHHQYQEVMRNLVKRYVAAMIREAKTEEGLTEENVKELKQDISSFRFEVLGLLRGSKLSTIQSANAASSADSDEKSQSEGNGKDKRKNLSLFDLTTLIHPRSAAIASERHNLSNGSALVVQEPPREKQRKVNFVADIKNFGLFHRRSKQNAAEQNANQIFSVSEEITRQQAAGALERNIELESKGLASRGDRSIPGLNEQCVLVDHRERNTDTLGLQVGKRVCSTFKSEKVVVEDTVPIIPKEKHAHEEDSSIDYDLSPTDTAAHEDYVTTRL

SMILES: COc1ccc(C(=O)Nc2nc(O)c3cc(OC)c(OC)cc3n2)cc1
- EC50 (Estrogen receptor): 13.3 µM (not active)

SMILES: COc1ccc(OC)c(Nc2nc(-c3ccc(O)c(O)c3)cs2)c1
- EC50 [1]: 6.89 µM (active)
- IC50 [2]: > 50 µM (not active)
- IC50 (Protein Tat): > 100 µM (inconclusive)
- CC50 [3]: 9.32 µM (active)

SMILES: CCCCC1CCC(C(=O)NCC(c2ccco2)N2CCOCC2)CC1 (stereo not drawn)
- EC50 [4]: 0.92 µM (active)

SMILES: CC(=O)Nc1ccc(SCC(=O)c2cc(C)n(Cc3ccccc3)c2C)cc1
- EC50 [5]: > 30 µM (not active)

SMILES: Cc1ccc(C)n1-c1ccc(OCC(=O)O)cc1
- EC50 (Bcl-2-like protein 10 [6]): 8.75 µM (active)
- IC50 (NS3): 36 µM (inactive)

SMILES: CCCCOc1cccc(OCCCC)c1C(=O)Nc1cc(C)on1
- IC50 [7]: > 35 µM (not active)
- IC50 [8]: > 35 µM (not active)
- IC50 [9]: 4.03 µM (active)

SMILES: O=C(Nc1ccc(N2CCCCC2)c(Cl)c1)c1cccnc1
- CC50 [10]: 15.4 µM (active)
- EC50 [11]: > 120 µM (not active)
- EC50 [12]: 6.12 µM (active)
- EC50 (H4): > 120 µM (not active)
- IC50 (Vero): 8.75 µM (active)
- IC50 (cells): 13.6 µM (active)

SMILES: COc1ccc(NC(=O)CSc2nc3ccccc3c(=O)n2CCCN2CCCCC2)c(OC)c1
- IC50 [13]: 7.62 µM (active)
- IC50 [14]: 14.7 µM (not active)

SMILES: O=C(Nc1ccc2nc(-c3ccco3)c(-c3ccco3)nc2c1)N1CCCCCC1
- IC50 [15]: > 100 µM (not active)
- IC50 (Bcl-2-like protein 10 [16]): 0.725 µM (active)
- IC50 [17]: > 100 µM (not active)
- IC50 [18]: 1.03 µM (active) and 1.85 µM (active)

SMILES: N#Cc1c(NC(=O)C2CC(Cl)=CCC2C(=O)O)sc2c1CCCCC2 (stereo not drawn)
- IC50 (Leucine aminopeptidase): < 1 µM (active)
- IC50 (Aspartyl aminopeptidase): > 73.5 µM (not active)
- IC50 (Procathepsin L): > 59.6 µM (not active)
- EC50 [19]: 4.73 µM (active)
